The results in this text go back to PMC2817752, “Phenylbutyric Acid Rescues Endoplasmic Reticulum Stress-Induced Suppression of APP Proteolysis and Prevents Apoptosis in Neuronal Cells” (PLoS ONE, 2010).

The assay concerns the target T1, γ-secretase (presenilin-1, PS1) (Mus musculus, UniProt P49769).
T1 construct: gene Psen1; endogenous γ-secretase complex in N2a (NAG) cells, APPGV16 as substrate; with Nicastrin and the other subunits of the heterotetrameric γ-secretase complex
The experiment in a line: Gal4-luciferase reporter of γ-secretase cleavage of APPGV16 in stable N2a cells, […] h; CTF accumulation by western blot. Format: cell-based. In general terms: In a reporter assay the amount or activity of a reporter protein is the signal.

In general, IC50 refers to the concentration at which inhibition is half-maximal.

Regarding `C[C@H](NC(=O)Cc1cc(F)cc(F)c1)C(=O)N[C@H](C(=O)OC(C)(C)C)c1ccccc1` [DAPT], the 50% inhibitory concentration (IC50) is roughly 1000 nM.
